One test addresses T1, KRas^G12R (Homo sapiens, UniProt P01116, G12R).
T1 construct: Biotinylated KRas (corresponding to amino acids 1-169, produced at Accelegan Inc.); biotin (biotinylated); purchased Accelegan Inc
Nature of the test: KRas binding assay (TR-FRET tracer displacement), KRas G12R. On the technique in general: In TR-FRET formats the signal depends on donor and acceptor labels being close together.

Another test concerns the target T2, KRas^G12D (Homo sapiens, UniProt P01116, G12D).
T2 construct: Biotinylated KRas (corresponding to amino acids 1-169, produced at Accelegan Inc.); biotin (biotinylated); purchased Accelegan Inc
Nature of the test: KRas binding assay (TR-FRET tracer displacement), KRas G12D.

The target in another test is T3, KRas^G12V (Homo sapiens, UniProt P01116, G12V).
T3 construct: Biotinylated KRas (corresponding to amino acids 1-169, produced at Accelegan Inc.); biotin (biotinylated); purchased Accelegan Inc
T3 sequence (P01116 1-169 isoform P01116-2 G12V): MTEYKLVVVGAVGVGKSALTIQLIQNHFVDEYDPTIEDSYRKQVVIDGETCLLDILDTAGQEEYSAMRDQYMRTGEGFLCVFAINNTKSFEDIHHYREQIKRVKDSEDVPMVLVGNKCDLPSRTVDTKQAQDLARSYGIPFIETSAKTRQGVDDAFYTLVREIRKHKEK
As to the kind of experiment: KRas binding assay (TR-FRET tracer displacement), KRas G12V.

The next test has as its target T4, KRas^G12A (Homo sapiens, UniProt P01116, G12A).
T4 construct: Biotinylated KRas (corresponding to amino acids 1-169, produced at Accelegan Inc.); biotin (biotinylated); purchased Accelegan Inc
Nature of the test: KRas binding assay (TR-FRET tracer displacement), KRas G12A. Particulars: for IC50: TR-FRET tracer displacement, KRas G12A.

For the next test, the target named is T5, KRas^WT (Homo sapiens, UniProt P01116).
T5 construct: Biotinylated KRas (corresponding to amino acids 1-169, produced at Accelegan Inc.); biotin (biotinylated); purchased Accelegan Inc
T5 sequence (P01116 1-169 isoform P01116-2): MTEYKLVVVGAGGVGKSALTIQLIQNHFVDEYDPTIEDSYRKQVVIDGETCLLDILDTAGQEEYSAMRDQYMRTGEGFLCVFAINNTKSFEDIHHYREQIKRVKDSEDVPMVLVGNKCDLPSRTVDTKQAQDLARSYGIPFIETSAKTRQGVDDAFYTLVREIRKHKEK
Nature of the test: KRas binding assay (TR-FRET tracer displacement), KRas WT. Particulars: for IC50: TR-FRET tracer displacement, KRas WT.

Test [1] relates to KRas-mediated phosphorylation of ERK in AsPC-1 cells. Nature of the test: Inhibition of KRas-mediated phosphorylation of ERK (Cisbio HTRF pERK), AsPC-1 cells. The class given is cell-based. Particulars: Homo sapiens; for IC50: ASPC1, AsPC-1 cells, HTRF pERK; for inhibition at 0.1 µM: ASPC1, 3 h, single point, 100 nM compound, 3 hrs, AsPC-1 cells. In outline: (§1)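 Each compound was tested at 10 concentrations, threefold apart with 10 uM the highest, for 3 hrs on 6,000 seeded cells; final DMSO was 0.8% and Trametinib (0.2 uM) served as Min control. Lysed cells were analysed for pERK by HTRF.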

Test [2] deals with KRas-mediated phosphorylation of ERK in H727 cells. As to the kind of experiment: Inhibition of KRas-mediated phosphorylation of ERK (Cisbio HTRF pERK), H727 cells. The class given is cell-based. Particulars: Homo sapiens; for IC50: NCI-H727, H727 cells, HTRF pERK; for inhibition at 0.1 µM: NCI-H727, 3 h, single point, 100 nM compound, 3 hrs, H727 cells. The gist of the method: as §1

Test [3] deals with KRas-mediated phosphorylation of ERK in PSN1 cells. As to the kind of experiment: Inhibition of KRas-mediated phosphorylation of ERK (Cisbio HTRF pERK), PSN1 cells. Type of test: cell-based. Particulars: Homo sapiens. In outline: (§2)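 Day 1 seeding: 6,000 cells per well, RPMI/10% FBS, left overnight at 37° C. with 5% CO2. Plates then stood covered for 4 h at room temperature prior to HTRF detection of pERK.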

The next test has as its target T6, KRas^G12S (Homo sapiens, UniProt P01116, G12S).
T6 construct: Biotinylated KRas (corresponding to amino acids 1-169, produced at Accelegan Inc.); biotin (biotinylated); purchased Accelegan Inc
As to the kind of experiment: KRas binding assay (TR-FRET tracer displacement), KRas G12S. Particulars: for IC50: TR-FRET tracer displacement, KRas G12S.

A further test concerns the target T7, KRas^Q61H (Homo sapiens, UniProt P01116, Q61H).
T7 construct: Biotinylated KRas (corresponding to amino acids 1-169, produced at Accelegan Inc.); biotin (biotinylated); purchased Accelegan Inc
As to the kind of experiment: KRas binding assay (TR-FRET tracer displacement), KRas Q61H. Particulars: for IC50: TR-FRET tracer displacement, KRas Q61H.

For test [4], the system named is KRas-mediated phosphorylation of ERK in MKN1 cells. As to the kind of experiment: Inhibition of KRas-mediated phosphorylation of ERK (Cisbio HTRF pERK), MKN1 cells. Type of test: cell-based. Particulars: Homo sapiens, MKN-1. The gist of the method: as §2
In a further test the target is T8, KRas^G12C (Homo sapiens, UniProt P01116, G12C).
T8 construct: Biotinylated KRas (corresponding to amino acids 1-169, produced at Accelegan Inc.); biotin (biotinylated); purchased Accelegan Inc
T8 sequence (P01116 1-169 isoform P01116-2 G12C): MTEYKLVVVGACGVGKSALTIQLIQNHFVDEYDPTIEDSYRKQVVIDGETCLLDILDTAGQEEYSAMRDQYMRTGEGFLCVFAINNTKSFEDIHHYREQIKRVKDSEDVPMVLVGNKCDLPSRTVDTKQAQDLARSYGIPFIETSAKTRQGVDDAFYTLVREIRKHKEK
As to the kind of experiment: KRas binding assay (TR-FRET tracer displacement), KRas G12C. Particulars: for IC50: TR-FRET tracer displacement, KRas G12C.

A further test addresses T9, KRas^G13D (Homo sapiens, UniProt P01116, G13D).
T9 construct: Biotinylated KRas (corresponding to amino acids 1-169, produced at Accelegan Inc.); biotin (biotinylated); purchased Accelegan Inc
As to the kind of experiment: KRas binding assay (TR-FRET tracer displacement), KRas G13D. Particulars: for IC50: TR-FRET tracer displacement, KRas G13D.

Test [5] relates to KRas-mediated phosphorylation of ERK in A549 cells. As to the kind of experiment: Inhibition of KRas-mediated phosphorylation of ERK (Cisbio HTRF pERK), A549 cells. Particulars: Homo sapiens; for inhibition at 0.1 µM: A549, 3 h, single point, 100 nM compound, 3 hrs. The class given is cell-based. In outline: as §1
The test system of test [6] is KRas-mediated phosphorylation of ERK in H358 cells. As to the kind of experiment: Inhibition of KRas-mediated phosphorylation of ERK (Cisbio HTRF pERK), H358 cells. The class given is cell-based. Particulars: Homo sapiens; for inhibition at 0.1 µM: NCI-H358, 3 h, single point, 100 nM compound, 3 hrs. The gist of the method:
as §1

Test [7] relates to KRas-mediated phosphorylation of ERK in H460 cells. As to the kind of experiment: Inhibition of KRas-mediated phosphorylation of ERK (Cisbio HTRF pERK), H460 cells. Type of test: cell-based. Particulars: Homo sapiens; for inhibition at 0.1 µM: NCI-H460, 3 h, single point, 100 nM compound, 3 hrs. The gist of the method: as §1
The test system of test [8] is KRas-mediated phosphorylation of ERK in HCT116 cells. As to the kind of experiment: Inhibition of KRas-mediated phosphorylation of ERK (Cisbio HTRF pERK), HCT116 cells. Type of test: cell-based. Particulars: Homo sapiens; for inhibition at 0.1 µM: HCT-116, 3 h, single point, 100 nM compound, 3 hrs. In outline:
as §1

Where [9] appears, read: single point, 10 nM compound, TR-FRET.

For six compounds, IC50 and inhibition results are on record in US20260015350A1, “AZAQUINAZOLINE PAN-KRAS INHIBITORS” (Mirati Therapeutics, Inc., priority 2022, published 2026).

SMILES strings stand for the structures. Some results are limits rather than exact numbers.

T2 sequence (P01116 1-169 isoform P01116-2 G12D): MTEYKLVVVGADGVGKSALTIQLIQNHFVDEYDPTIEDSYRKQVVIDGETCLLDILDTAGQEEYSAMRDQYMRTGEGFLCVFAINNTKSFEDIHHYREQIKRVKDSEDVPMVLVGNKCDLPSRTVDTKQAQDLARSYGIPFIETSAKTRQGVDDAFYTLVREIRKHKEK
T9 sequence (P01116 1-169 isoform P01116-2 G13D): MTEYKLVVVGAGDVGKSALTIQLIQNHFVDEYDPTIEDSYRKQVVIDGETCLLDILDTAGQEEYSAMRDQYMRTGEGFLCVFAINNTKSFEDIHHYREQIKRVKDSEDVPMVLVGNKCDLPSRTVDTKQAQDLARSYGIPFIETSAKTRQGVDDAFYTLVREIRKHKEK
T4 sequence (P01116 1-169 isoform P01116-2 G12A): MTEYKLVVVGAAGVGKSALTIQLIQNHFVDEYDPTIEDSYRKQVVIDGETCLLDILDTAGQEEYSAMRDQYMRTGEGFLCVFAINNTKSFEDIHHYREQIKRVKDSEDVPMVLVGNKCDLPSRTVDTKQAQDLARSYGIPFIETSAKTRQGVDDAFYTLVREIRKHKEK
T7 sequence (P01116 1-169 isoform P01116-2 Q61H): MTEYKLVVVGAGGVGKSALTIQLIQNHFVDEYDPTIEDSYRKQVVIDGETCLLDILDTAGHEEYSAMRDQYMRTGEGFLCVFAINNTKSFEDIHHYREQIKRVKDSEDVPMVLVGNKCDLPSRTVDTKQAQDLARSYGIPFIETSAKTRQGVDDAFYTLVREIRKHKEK
T1 sequence (P01116 1-169 isoform P01116-2 G12R): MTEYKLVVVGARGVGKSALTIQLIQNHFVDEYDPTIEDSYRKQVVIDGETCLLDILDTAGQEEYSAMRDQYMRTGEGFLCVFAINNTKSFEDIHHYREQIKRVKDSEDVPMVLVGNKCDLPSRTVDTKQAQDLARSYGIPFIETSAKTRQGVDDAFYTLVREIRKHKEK
T6 sequence (P01116 1-169 isoform P01116-2 G12S): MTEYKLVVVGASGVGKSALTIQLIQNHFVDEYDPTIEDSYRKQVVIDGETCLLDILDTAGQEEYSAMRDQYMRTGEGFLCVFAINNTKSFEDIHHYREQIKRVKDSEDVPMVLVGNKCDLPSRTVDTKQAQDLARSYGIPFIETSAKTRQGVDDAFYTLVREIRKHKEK

The term IC50 denotes the midpoint of a concentration-inhibition curve. A higher IC50 goes with lower potency. Take `Cc1cc2[nH]ncc2c(-c2ncc3c(N4CCCC5(C4)NC(=O)NC5=O)nc(OCC45CCCN4CCC5)nc3c2F)c1C` (stereo not drawn) [Example 728, 7-(7-(5,6-dimethyl-1H-indazol-4-yl)-8-fluoro-2-((hexahydro-1H-pyrrolizin-7a-yl)methoxy)pyrido[4,3-d]pyrimidin-4-yl)-1,3,7-triazaspiro[4.5]decane-2,4-dione]: the IC50 at KRas^G12R is 34 nM; at KRas^G12D, 60 nM; at KRas^G12V, 23 nM; on KRas^G12A, 35 nM; on KRas^WT, 34 nM; in test [1] it was 2510 nM. Besides, the IC50 in [2] is 2510 nM; in [3], greater than 10000 nM; at KRas^G12S, 31 nM; on KRas^Q61H, 40 nM; in [4] it was greater than 10000 nM; at KRas^G12C it was 31 nM. In addition, the IC50 at KRas^G13D turned out to be 37 nM.
What is called inhibition is the change of the read-out against control, counted positive when it falls. `C#Cc1c(F)ccc2cc(O)cc(-c3ncc4c(N5CCC[C@@](C)(O)C5)nc(OCC5(CN6CCCC6)CC5)nc4c3F)c12` [Example 752, (R)-1-(7-(8-ethynyl-7-fluoro-3-hydroxynaphthalen-1-yl)-8-fluoro-2-((1-(pyrrolidin-1-ylmethyl)cyclopropyl)methoxy)pyrido[4,3-d]pyrimidin-4-yl)-3-methylpiperidin-3-ol]: the inhibition at 0.1 µM in test [5] turned out to be 31%; in test [6], 76%; in [1] it was 27%; in [7], 44%; in test [2] it was 31%; in test [8], 32%. Also, the half-inhibitory concentration (IC50) at KRas^G12R is less than 2 nM; at KRas^G12D it was less than 2 nM; at KRas^G12V, less than 2 nM; in [1], 55 nM; in test [2], 53 nM. The inhibition at 0.01 µM stood at 96% on KRas^G12A (setting [9]); 97% on KRas^WT (setting [9]); 97% at KRas^G12S (setting [9]); 99% at KRas^Q61H (setting [9]); 99% on KRas^G12C (setting [9]); 98% on KRas^G13D (setting [9]).
Regarding `O=S1(=O)NCC2(CCCN(c3nc(OCC45CCCN4CCC5)nc4c(F)c(-c5c6ccccc6cc6[nH]ncc56)ncc34)C2)N1` (stereo not drawn) [Example 758, 7-(7-(1H-benzo[f]indazol-4-yl)-8-fluoro-2-((hexahydro-1H-pyrrolizin-7a-yl)methoxy)pyrido[4,3-d]pyrimidin-4-yl)-2-thia-1,3,7-triazaspiro[4.5]decane 2,2-dioxide], the inhibition at 0.1 µM in [5] was 11%; in [6], 23%; in test [7], 9%; in test [8], 20%. Further, the IC50 was less than 2 nM on KRas^G12R; 5 nM on KRas^G12D; less than 2 nM at KRas^G12V; less than 2 nM on KRas^G12A; less than 2 nM on KRas^WT; 1270 nM in test [1]. In addition, the IC50 is 1780 nM in test [2]; less than 2 nM at KRas^G12S; less than 2 nM at KRas^Q61H; less than 2 nM on KRas^G12C; less than 2 nM at KRas^G13D.
Take `Oc1cc(-c2ncc3c(N4C[C@@H]5C[C@H](C4)[C@H](O)C5)nc(OC[C@@]45CCCN4C[C@H](F)C5)nc3c2F)c2ccc(Cl)cc2c1` [Example 763, (1R,5R,6R)-3-(7-(6-chloro-3-hydroxynaphthalen-1-yl)-8-fluoro-2-(((2R,7aS)-2-fluorohexahydro-1H-pyrrolizin-7a-yl)methoxy)pyrido[4,3-d]pyrimidin-4-yl)-3-azabicyclo[3.2.1]octan-6-ol]: the inhibition at 0.1 µM in test [5] was -11%; in test [6], -25%; in [7], 13%; in test [8] it was 5%. Further, the IC50 worked out at 18 nM at KRas^G12R; 70 nM at KRas^G12D; 23 nM at KRas^G12V; 25 nM on KRas^G12A; 36 nM at KRas^WT; 1250 nM in [1]. The IC50 was 498 nM in test [2]; 20 nM on KRas^G12S; 45 nM at KRas^Q61H; 33 nM on KRas^G12C; 36 nM on KRas^G13D.
Regarding `CCc1cccc2cc3[nH]ncc3c(-c3ncc4c(N5CCCC6(CNS(=O)(=O)N6)C5)nc(OC[C@@]56CCCN5C[C@H](F)C6)nc4c3F)c12` (stereo partly drawn) [Example 772, 7-(7-(5-ethyl-1H-benzo[f]indazol-4-yl)-8-fluoro-2-(((2R,7aS)-2-fluorohexahydro-1H-pyrrolizin-7a-yl)methoxy)pyrido[4,3-d]pyrimidin-4-yl)-2-thia-1,3,7-triazaspiro[4.5]decane 2,2-dioxide], the inhibition at 0.1 µM in test [5] is 22%; in test [6] it was -4%; in test [7], 19%; in test [8], 3%. Also, the IC50 at KRas^G12R is 12 nM; at KRas^G12D, 7 nM; at KRas^G12V it was 5 nM; on KRas^G12A it was 5 nM; at KRas^WT, 4 nM; in test [1], 2230 nM. The IC50 in test [2] amounted to 2670 nM; on KRas^G12S, 5 nM; on KRas^Q61H it was 3 nM; at KRas^G12C, 7 nM; on KRas^G13D, 4 nM.
In the case of `O=C1NC(=O)[C@]2(CCCN(c3nc(OC[C@@]45CCCN4C[C@H](F)C5)nc4c(F)c(-c5c(C6CC6)c(Cl)cc6[nH]ncc56)ncc34)C2)N1` [Example 780, (5R)-7-(7-(6-chloro-5-cyclopropyl-1H-indazol-4-yl)-8-fluoro-2-(((2R,7aS)-2-fluorohexahydro-1H-pyrrolizin-7a-yl)methoxy)pyrido[4,3-d]pyrimidin-4-yl)-1,3,7-triazaspiro[4.5]decane-2,4-dione], the inhibition at 0.1 µM in test [5] is 21%; in test [6], 42%; in [1], -12%; in test [7] it was -8%; in [2] it was 30%; in [8], -2%. In addition, the IC50 in test [5] (HTRF pERK) is 412 nM; in test [6] (NCI-H358, HTRF pERK) it was 33 nM; at KRas^G12R, less than 2 nM; on KRas^G12D it was less than 2 nM; on KRas^G12V, less than 2 nM; at KRas^G12A it was less than 2 nM. Besides, the IC50 on KRas^WT is less than 2 nM; in [1] it was 784 nM; in test [7] (NCI-H460, HTRF pERK) it was 246 nM; in test [2], 340 nM; on KRas^G12S, less than 2 nM; on KRas^Q61H, less than 2 nM. Further, the IC50 in test [8] (HCT-116, HTRF pERK) was 557 nM; at KRas^G12C it was less than 2 nM; on KRas^G13D it was less than 2 nM.
